Results published in ChEMBL document CHEMBL1201862, “PubChem BioAssay data set” (2004).
Active and inactive are the calls of the source.

Assays:
[1] = target: Prothrombin (Homo sapiens, UniProt P00734); assay: Thrombin 1536 HTS Dose Response Confirmation. [Related pubchem assays: 1046 (Thrombin 1536 HTS; hits were confirmed in this assay)]; format: functional
[2] = A cytotoxicity screen of small molecule inhibitors of the PhoP region in Salmonella typhi identified in the primary screen. [Related pubchem assays: 1850, 1864, 1985 ]; format: functional
[3] = target: T1, Tyrosine-protein phosphatase non-receptor type 7 (Homo sapiens, UniProt P35236); assay: inhibitors of human HePTP phosphatase, […], biochemical, absorbance, leukemia target (AID 521); format: functional
T1 sequence (P35236 whole entry): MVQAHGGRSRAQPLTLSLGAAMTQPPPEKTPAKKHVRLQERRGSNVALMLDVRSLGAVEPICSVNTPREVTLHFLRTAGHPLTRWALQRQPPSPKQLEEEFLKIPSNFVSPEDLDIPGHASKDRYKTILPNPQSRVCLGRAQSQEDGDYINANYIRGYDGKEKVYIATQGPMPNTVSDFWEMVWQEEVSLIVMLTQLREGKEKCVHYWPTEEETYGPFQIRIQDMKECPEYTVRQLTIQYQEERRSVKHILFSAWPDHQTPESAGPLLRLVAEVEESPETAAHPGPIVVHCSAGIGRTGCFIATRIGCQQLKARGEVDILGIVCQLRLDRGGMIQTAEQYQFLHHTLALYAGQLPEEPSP

[4] = target: T2, fMet-Leu-Phe receptor (Homo sapiens, UniProt P21462); assay: FPR ligands, dose response (AID 519); format: functional
T2 sequence (P21462 whole entry): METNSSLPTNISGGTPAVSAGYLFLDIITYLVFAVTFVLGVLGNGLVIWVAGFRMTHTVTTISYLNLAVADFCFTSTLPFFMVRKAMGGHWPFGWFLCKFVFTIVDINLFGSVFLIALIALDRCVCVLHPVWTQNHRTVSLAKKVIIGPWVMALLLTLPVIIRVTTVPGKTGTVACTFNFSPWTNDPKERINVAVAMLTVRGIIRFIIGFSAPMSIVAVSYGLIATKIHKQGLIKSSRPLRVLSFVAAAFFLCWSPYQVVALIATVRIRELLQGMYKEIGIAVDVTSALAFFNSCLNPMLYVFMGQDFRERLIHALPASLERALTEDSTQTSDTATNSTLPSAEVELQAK

[5] = target: Disintegrin and metalloproteinase domain-containing protein 17 (Homo sapiens, UniProt P78536); assay: ADAM17 protease inhibitors, dose response, counter-screen for ADAM10 exosite inhibitor project, biochemical, quenched FRET substrate (AID 743253)
[6] = ADAM10 inhibitors, peptide cleavage, dose response, biochemical, QFRET (AID 743254);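 note: ADAM10 enzyme with the DM2 quenched FRET peptide as substrate; EDANS fluorescence gain as the protease cuts the substrate; inhibitor potency against ADAM10 proteolytic activity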
[7] = cytotoxicity in OVCAR8 ovarian cancer cells, dose response, PAX8 project, cell-based, plate reader, dry powder samples (AID 743197); format: functional; details: OVCAR-8
[8] = non-specific cell cytotoxicity, dose response, cytotoxicity control for PAX8 inhibitor project, plate reader, dry powder samples (AID 743021); format: functional, cell-based
[9] = IGROV1 ovarian cancer cell cytotoxicity, dose response, PAX8 inhibitor project, plate reader, dry powder samples (AID 743043); format: functional, cell-based; details: IGROV-1
[10] = target: Paired box protein Pax-8 (Homo sapiens, UniProt Q06710); assay: inhibitors of PAX8-driven TPO luciferase reporter, dose response, RMG-I cells, cherry-pick (AID 687027); format: functional, cell-based;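 note: luciferase reporter driven by Pax8 target thyroperoxidase promoter measured by SteadyGlo luminescence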
[11] = NIH:OVCAR-3 ovarian cancer cell cytotoxicity, dose response, PAX8 inhibitor project, plate reader, dry powder samples (AID 743044); format: functional, cell-based
[12] = HEK293 cell cytotoxicity, dose response, cytotoxicity control, plate reader, cherry-picked samples (AID 743446); format: functional, cell-based
[13] = MC4R antagonists, dose response, counter-screen for LGR2 antagonist project, cell-based, plate reader, cherry pick (AID 743444); format: functional;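 note: transfected HEK 293 cells stimulated with alpha-MSH peptide; potency of inhibitors of the alpha-MSH evoked signal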
[14] = LGR2 antagonists, dose response, cell-based, HEK293, CRE-luciferase reporter, cherry pick, set 2 (AID 743343); format: functional;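 note: transfected cells were stimulated with diluted bursicon conditioned medium after compound addition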
[15] = A549 cell cytotoxicity, dose response, cytotoxicity control, plate reader, cherry-pick, antagonist series (AID 743412); format: functional, cell-based
[16] = HepG2 cell cytotoxicity, dose response, cytotoxicity control, plate reader, cherry-pick, antagonist series (AID 743416); format: functional, cell-based

Sequence of Paired box protein Pax-8 (Q06710 whole entry): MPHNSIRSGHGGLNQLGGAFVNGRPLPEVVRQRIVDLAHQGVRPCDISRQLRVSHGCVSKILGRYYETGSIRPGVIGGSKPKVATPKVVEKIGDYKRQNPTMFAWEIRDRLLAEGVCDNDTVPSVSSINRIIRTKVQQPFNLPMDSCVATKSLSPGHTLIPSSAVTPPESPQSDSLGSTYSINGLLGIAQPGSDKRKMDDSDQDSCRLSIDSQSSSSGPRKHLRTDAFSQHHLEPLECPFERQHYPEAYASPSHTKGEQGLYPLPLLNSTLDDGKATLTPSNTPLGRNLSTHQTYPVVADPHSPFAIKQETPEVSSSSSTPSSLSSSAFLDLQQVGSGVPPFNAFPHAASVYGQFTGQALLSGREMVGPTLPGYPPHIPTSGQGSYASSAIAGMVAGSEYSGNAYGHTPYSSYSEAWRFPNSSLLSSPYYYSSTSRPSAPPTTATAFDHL
Sequence of Disintegrin and metalloproteinase domain-containing protein 17 (P78536 whole entry, the tested form may be a part): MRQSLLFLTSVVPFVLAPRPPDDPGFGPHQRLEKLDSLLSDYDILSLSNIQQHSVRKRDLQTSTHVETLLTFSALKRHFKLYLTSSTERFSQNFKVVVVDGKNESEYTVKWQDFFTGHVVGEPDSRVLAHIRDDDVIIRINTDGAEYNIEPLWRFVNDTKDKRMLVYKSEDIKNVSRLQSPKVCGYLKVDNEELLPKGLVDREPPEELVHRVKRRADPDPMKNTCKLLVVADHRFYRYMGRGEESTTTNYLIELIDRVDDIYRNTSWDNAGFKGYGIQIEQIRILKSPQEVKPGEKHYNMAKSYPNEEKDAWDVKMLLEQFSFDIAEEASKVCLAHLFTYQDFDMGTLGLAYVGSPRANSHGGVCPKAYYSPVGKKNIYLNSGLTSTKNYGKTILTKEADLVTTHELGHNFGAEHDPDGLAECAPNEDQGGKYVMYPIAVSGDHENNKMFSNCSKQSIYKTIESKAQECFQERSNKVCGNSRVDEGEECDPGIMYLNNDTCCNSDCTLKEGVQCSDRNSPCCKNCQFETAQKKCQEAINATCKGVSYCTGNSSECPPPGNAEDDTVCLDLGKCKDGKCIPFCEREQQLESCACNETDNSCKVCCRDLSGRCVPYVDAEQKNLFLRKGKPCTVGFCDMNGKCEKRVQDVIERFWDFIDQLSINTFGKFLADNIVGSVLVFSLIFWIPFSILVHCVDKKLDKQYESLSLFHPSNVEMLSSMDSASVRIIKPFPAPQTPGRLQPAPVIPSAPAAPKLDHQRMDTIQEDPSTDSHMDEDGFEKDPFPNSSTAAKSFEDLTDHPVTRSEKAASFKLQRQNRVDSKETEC

C=C(C)CN(CC)C(=O)CC1C(=O)NCCN1CC(C)(C)C (stereo not drawn)
IC50 [1]: > 50 µM (not active)

CC(C)(C)n1nc2c(c1NC(=O)Cc1cccs1)CSC2
EC50 [2]: > 50 µM (active)

c1ccc(-c2nn[nH]c2-c2ccccc2)cc1
IC50 [3]: > 100 µM (not active)

CCCNC(=O)CS(=O)(=O)Cc1nc(-c2cccc(OC)c2)oc1C
Ki [4]: > 66.7 µM (inactive)

C1=C(CCNCc2ccccc2)CCCC1
EC50 [2]: > 50 µM (active)

O=C1CCC(C(=O)Nc2cccc3ccccc23)N1 (stereo not drawn)
IC50 [1]: > 50 µM (not active)

C=CCC[C@@H](Cc1ccc(F)cc1)C(=O)OC[C@H](Cc1c[nH]c2ccccc12)NC(=O)[C@H](CC=C)CC(=O)N(CCO)Cc1ccccc1
IC50 [5]: > 69.5 µM (inactive)
IC50 [6]: 5.38 µM (active)

Cc1cc(F)ccc1C(O)c1nc(-c2cccc(OCc3ccccc3)c2)c[nH]1 (stereo not drawn)
IC50 [5]: > 69.5 µM (inactive)
IC50 [6]: 13.9 µM (inactive)

CCS(=O)(=O)N1CC(=O)N2[C@H](CO)[C@@H](c3ccc(-c4ccccc4F)cc3)[C@H]2C1
AC50 [7]: 63 µM (active)
AC50 [8]: 60.5 µM (active)
AC50 [9]: 28.6 µM (active)
AC50 [10]: 5.26 µM (active)
AC50 [11]: 14.1 µM (active)

N#C[C@H]1[C@H](c2ccc(C#Cc3ccccc3F)cc2)[C@H](CO)N1C(=O)C1CCC1
AC50 [12]: 17.9 µM (active)
AC50 [13]: 14.7 µM (active)
AC50 [8]: 21.9 µM (active)
AC50 [14]: 11.4 µM (active)
AC50 [10]: 11.1 µM (active)
AC50 [15]: 29.7 µM (active)
AC50 [11]: 23.8 µM (active)
AC50 [16]: 32.2 µM (active)

C[C@@H]1CN([C@@H](C)CO)C(=O)c2cc(NC(=O)CCC(F)(F)F)ccc2O[C@@H](C)CCCCO[C@H]1CN(C)Cc1ccc(C(F)(F)F)cc1
AC50 [7]: 50.8 µM (active)
AC50 [9]: 65.5 µM (active)
AC50 [10]: 2.43 µM (active)
AC50 [11]: 17.2 µM (active)

Cc1occc1C(=O)N/N=C/C=C/c1ccccc1
EC50 [2]: > 50 µM (active)
